# Values of other authors in US20250073219A1, “NEW COMPOSITION COMPRISING IMMUNOMODULATORY DRUG” (NANEXA AB, priority 2021, published 2025).
# Details: oral, about 25 mg once daily, plasma; cited from earlier work
smiles,measurement,value
"Nc1cccc2c1CN(C1CCC(=O)NC1=O)C2=O (stereo not drawn) [lenalidomide, 3-(4-amino-1-3-dihydro-l-ovo-2H-isoindol-2yl)-2,6-piperidinedione]",Cmax obtained from a dosing regimen comprising orally administering an about 25 mg dose once daily,about 568 ng/ml
